From ChEMBL document CHEMBL1687721, “New drugs against tuberculosis: problems, progress, and evaluation of agents in clinical development” (Antimicrob Agents Chemother, 2009)
In brackets after ≈: the same amount, converted by molar mass.

Experiments:
Type in all cases: functional
[1] = tested on: Mycobacterium tuberculosis; assay: Antimicrobial activity against compound-resistant Mycobacterium tuberculosis
[2] = tested on: Mycobacterium tuberculosis; assay: Antimicrobial activity against multiple drug-resistant Mycobacterium tuberculosis
[3] = tested on: Mycobacterium tuberculosis; assay: Antimicrobial activity against rifampicin-resistant Mycobacterium tuberculosis

SMILES | MIC [1] | MIC [2] | MIC [3]
C[C@]1(COc2ccc(N3CCC(Oc4ccc(OC(F)(F)F)cc4)CC3)cc2)Cn2cc([N+](=O)[O-])nc2O1 | 0.006 µg/mL (≈ 0.0112 µM) |  | 
COc1nc2ccc(Br)cc2cc1[C@@H](c1ccccc1)[C@@](O)(CCN(C)C)c1cccc2ccccc12 [BEDAQUILINE] |  | 0.03 µg/mL (≈ 0.054 µM) | 
COc1c(N2CCNC(C)C2)c(F)cc2c(=O)c(C(=O)O)cn(C3CC3)c12 (stereo unspecified) [GATIFLOXACIN] |  |  | 0.2 µg/mL (≈ 0.533 µM)
O=[N+]([O-])c1cn2c(n1)OC[C@@H](OCc1ccc(OC(F)(F)F)cc1)C2 [PRETOMANID] |  | 0.015 µg/mL (≈ 0.0418 µM) | 
CO[C@H]1/C=C/O[C@@]2(C)Oc3c(C)c(O)c4c(O)c(c(/C=N/N5CCN(C6CCCC6)CC5)c(O)c4c3C2=O)NC(=O)/C(C)=C\C=C\[C@H](C)[C@H](O)[C@@H](C)[C@@H](O)[C@@H](C)[C@H](OC(C)=O)[C@@H]1C [RIFAPENTINE] |  |  | 0.02 µg/mL (≈ 0.0228 µM)
CC(C)=CCC/C(C)=C/CNCCNC1C2CC3CC(C2)CC1C3 (stereo unspecified) [SQ109] | 0.16 µg/mL (≈ 0.484 µM) |  | 
